Results published in patent publication US20040191240A1, “Composition and method for nerve regeneration” (priority 2003, published 2004).
Entries after “also recorded” stand apart in the source; their conditions may differ. Values belong to the compound of their own block, whether it stands above or below them. Where no end group is shown, it is not given here.

How the values were obtained:
[1] = system: cerebellar granule neurons from P7 rats; assay: Neurite outgrowth (growth) assay, cerebellar neurons; format: cell-based, rat; conditions: data not shown
[2] = system: cerebellar granule neurons; assay: Ca2+ fluorescence imaging (Oregon-green 488BAPTA-1 and Fura Red); format: cell-based; conditions: p7 rat cerebellar granule neurons; inhibitor or antibody with MAG
DRG neurons = assay: Neurite outgrowth assay, adult DRG neurons; format: cell-based, mouse; conditions: peptide 100 nM
cerebellar neurons = assay: Neurite outgrowth assay, post-natal cerebellar neurons; format: cell-based, mouse
RhoA = assay: Affinity-precipitation of GTP-RhoA in cerebellar neurons; format: cell-based, mouse; conditions: TAT-Pep5 1 μM; Nogo peptide 4 μM, MAG-Fc 25 μg/ml; 30 min
Procedure: 293 cells were transfected with pcDNA3 vectors containing wild type RhoA whose NH2-terminus is tagged with HA (Yamashita, T. et al., Neuron. 24:585-593, 1999) and/or full-length human p75 by lipofection using Lipofectamine 2000 (Gibco BRL). Cerebellar neurons from P9 mice were isolated as described previously (Cai et al, Neuron, 22:89-101, 1999). Cells were lysed in 50 mM Tris (pH 7.5), 1% Triton X-100, 0.5% sodium deoxycholate, 0.1% SDS, 500 mM NaCl, 10 mM MgCl2, with leupeptin and aprotinin, each at 10 μg/ml. Cell lysates were clarified by centrifugation at 13,000×g at 4° C. for 10 min, and the supernatants were incubated with the 20 μg of GST-Rho binding domain of Rhotekin beads (Upstate Biotech.) at 4° C. for 45 min. The beads were washed 4 times with washing buffer (50 mM Tris (pH 7.5) containing 1% Triton X-100, 150 mM NaCl, 10 mM MgCl2, 10 μg/ml each of leupeptin and aprotinin). Bound Rho proteins were detected by Western blotting using a monoclonal antibody against RhoA (Santa Cruz Biotechnology).
Amino-terminally FLAG-tagged human p75 or the deletion mutants of p75 ICD were cloned into pcDNA3.1 expression plasmid, and were transfected with 293T cells. […] Bound Rho proteins were detected by Western blotting using a monoclonal antibody against RhoA (Santa Cruz Biotechnology).

male Wistar rats [3] = assay: Spinal cord injury (dorsal half dissected, ninth thoracic vertebra), agent pumped to the injured site; format: in vivo, rat; conditions: continuous osmotic pump to the injured site; versus control peptide
Procedure: 200 g male Wistar rats were used. After the ninth thoracic vertebrae laminectomy was performed, the dorsal half of the spinal cord was dissected. A continuous osmotic pump was used to continuously administer either TAT(PTD domain)-fused Pep5 (TAT-[…]) (SEQ ID NO. 2) or TAT(PTD domain)-fused control peptide (TAT-[…]) (SEQ ID NO. 15) to the injured site for 6 weeks ([…]). In this case, the tip of a tube connected to the pump was left in the medullary space. After spinal cord injury, the functional recovery was assessed using the BBB score. The animals were observed on day 7, 14, 21, 28, 35, and 42 after injury. These experiments were carried out using techniques described in Fournier A. E., Takizawa, B. T., Strittmatter, S. M., J. Neurosci. 2003, 23, 1416-1423.
200 g male Wistar rats were used. After the ninth thoracic vertebrae laminectomy was performed, the dorsal half of the spinal cord was dissected. A continuous osmotic pump was used to continuously administer either TAT-fused Pep5 or TAT (PTD domain)-fused control peptide to the injured site.

mice = assay: Spinal cord injury, similar experiments for mice (Example 2-7); format: in vivo, mouse
Procedure: Similar experiments were carried out for mice as described above.

[4] = biological target: Rho-kinase (GST-CAT; aa 6-553) (Bos taurus, UniProt Q28021); assay: In vitro binding assay of p21 and Rho-kinase; conditions: p21 1 nM
Sequence of Rho-kinase (GST-CAT; aa 6-553) (Q28021 6-553): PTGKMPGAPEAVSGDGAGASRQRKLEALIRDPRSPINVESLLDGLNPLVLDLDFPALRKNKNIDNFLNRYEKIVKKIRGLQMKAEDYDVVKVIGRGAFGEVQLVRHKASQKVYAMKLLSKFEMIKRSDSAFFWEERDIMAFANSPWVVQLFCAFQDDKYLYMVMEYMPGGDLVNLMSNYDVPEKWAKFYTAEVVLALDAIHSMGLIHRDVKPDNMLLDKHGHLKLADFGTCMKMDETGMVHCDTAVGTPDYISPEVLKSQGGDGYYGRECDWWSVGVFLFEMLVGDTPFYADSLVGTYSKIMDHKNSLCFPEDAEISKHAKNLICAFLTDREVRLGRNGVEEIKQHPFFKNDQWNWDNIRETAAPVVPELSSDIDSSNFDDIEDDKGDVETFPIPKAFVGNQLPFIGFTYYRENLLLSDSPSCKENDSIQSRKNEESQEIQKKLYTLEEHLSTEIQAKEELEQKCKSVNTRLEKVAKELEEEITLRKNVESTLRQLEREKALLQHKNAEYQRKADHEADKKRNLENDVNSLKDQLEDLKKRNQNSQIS

[5] = system: Rho kinase fragment (aa 1-543); assay: Rho-kinase kinase assay in vitro (S6 kinase substrate peptide); format: biochemical
male Wistar rats [6] = assay: Spinal cord injury, p21 and TAT-bound p21, BBB score; format: in vivo, rat; conditions: osmotic pump to the injured site for 2 weeks; observed from day 2 for 6 weeks
Procedure: 200 g male Wistar rats were used. After a ninth thoracic vertebrae laminectomy was performed, the dorsal half of the spinal cord was dissected. […] In this case, the tip of a tube connected to the pump was left in the medullary space.
After spinal cord injury, the functional recovery was assessed using the BBB score (Basso-Beattie-Bresnahan (BBB) Locomotor Rating; Basso, D. M., Beattie, M. S., Bresnahan, J. C., J. Neurotrauma 12 (1):1-21 (1995) ). Observation was carried out from day 2 after injury for 6 weeks.

Compound: Cn1c2ccccc2c2c3c(c4c5ccccc5n(CCC#N)c4c21)CNC3=O [G06976]
- neurite outgrowth by MAG-Fc or Nogo peptide when another PKC inhibitor was used [1]: Same results

Compound: COc1ccc2c(c1)CC[C@@H]1[C@@H]2CC[C@]2(C)[C@@H](NCCCCCCN3C(=O)C=CC3=O)CC[C@@H]12 [U73122]
- effect on Ca2+ elevation induced by MAG [2]: blocked

Compound: TAT-CFFRGGFFNHNPRYC ({TAT}-CFFRGGFFNHNPRYC; cysteine pairing not given here) [TAT-Pep5, Pep5 fused with the amino-terminal 11 amino acid protein transduction domain of HIV TAT]
- responsiveness of DRG neurons to MAG (25 μg/ml) and the Nogo peptide (4 μM) (DRG neurons): abolished their responsiveness
- inhibitory effect of MAG (25 μg/ml) and the Nogo peptide (4 μM) on post-natal cerebellar neurons (cerebellar neurons): efficiently silenced the inhibitory effect
- activation of RhoA induced by MAG-Fc or the Nogo peptide (RhoA): inhibited the activation of RhoA; also recorded: completely abolishes these effects
- nerve regeneration after spinal cord injury (male Wistar rats [3]): nerve regeneration was significantly observed
- nerve regeneration after spinal cord injury (mice): nerve regeneration was similarly observed

- in vitro interaction with the catalytic region of Rho-kinase [4]: bound to each other in vitro
Compound: p21: recombinant full-length p21 (1-164 in SEQ ID NO. 23), cyclin-dependent protein kinase inhibitor
- Rho-kinase activity toward S6 kinase substrate peptide [5]: inhibited the Rho-kinase activity toward S6 kinase substrate peptide in a dose-dependent manner
- functional recovery after spinal cord injury (BBB score) (male Wistar rats [6]): not sufficiently observed
